# From patent US11497212B2, “Substituted thiophenyl uracils, salts thereof and the use thereof as herbicidal agents” (Syngenta Crop Protection AG, priority 2017, dated 2022)
# Columns and labels:
# Format in all cases: in vivo
# Triticum aestivum = assay: Crop compatibility post-emergence (greenhouse pot trial)
# Description: (§1) Seeds of mono- and dicotyledonous weed plants and crop plants are laid out in sandy loam soil in plastic or wood-fiber pots, covered with earth and grown under controlled growth conditions in a greenhouse. 2 to 3 weeks after sowing, the trial plants are treated at the one-leaf stage. The compounds of the invention formulated in the form of wettable powders (WP) or emulsion concentrates (EC) were then sprayed onto the green parts of the plant as an aqueous suspension or emulsion with addition of 0.5% additive at a water application rate equivalent to 600 L/ha. After the trial plants had stood for about 3 weeks in the greenhouse, under optimal growth conditions, the effect of the preparations was scored visually by comparison with untreated controls. For example, 100% efficacy=plants have died, 0% efficacy=like control plants.
# (§2) Crop plant compatibilities were also scored correspondingly.
# (§3) The effects observed are reported here on selected crop plants by comparison with the untreated controls (values in %).
# Setaria viridis = assay: Herbicidal action post-emergence (greenhouse pot trial); settings: application rate 20 g/ha, scored visually after about 3 weeks vs untreated controls
# Description: as §1, with “plants. Tables A1 to A15 below show the efficacies of selected compounds of the general formula (I) according to tables I.1 to I.60 on various harmful plants and an application rate corresponding to 80 g/ha or lower that were obtained by the aforementioned trial method.” for “plants.”
# Viola tricolor = assay: as above; settings: application rate 20 g/ha
# Description: as §1, with “plants. Tables A1 to A15 below show the efficacies of selected compounds of the general formula (I) according to tables I.1 to I.60 on various harmful plants and an application rate corresponding to 80 g/ha or lower that were obtained by the aforementioned trial method.” for “plants.”
# Abutilon theophrasti = assay: as above; settings: application rate 20 g/ha, scored visually after about 3 weeks vs untreated controls
# Description: as §1, with “plants. Tables A1 to A15 below show the efficacies of selected compounds of the general formula (I) according to tables I.1 to I.60 on various harmful plants and an application rate corresponding to 80 g/ha or lower that were obtained by the aforementioned trial method.” for “plants.”
# Matricaria inodora = assay: as above; settings: application rate 20 g/ha, scored visually after about 3 weeks vs untreated controls
# Description: as §1, with “plants. Tables A1 to A15 below show the efficacies of selected compounds of the general formula (I) according to tables I.1 to I.60 on various harmful plants and an application rate corresponding to 80 g/ha or lower that were obtained by the aforementioned trial method.” for “plants.”
# Polygonum convolvulus = assay: as above; settings: application rate 20 g/ha, scored visually after about 3 weeks vs untreated controls
# Description: as §1, with “plants. Tables A1 to A15 below show the efficacies of selected compounds of the general formula (I) according to tables I.1 to I.60 on various harmful plants and an application rate corresponding to 80 g/ha or lower that were obtained by the aforementioned trial method.” for “plants.”
# Echinochloa crus-galli = assay: as above; settings: application rate 20 g/ha, scored visually after about 3 weeks vs untreated controls
# Description: as §1, with “plants. Tables A1 to A15 below show the efficacies of selected compounds of the general formula (I) according to tables I.1 to I.60 on various harmful plants and an application rate corresponding to 80 g/ha or lower that were obtained by the aforementioned trial method.” for “plants.”
# Pharbitis purpurea = assay: as above; settings: application rate 20 g/ha
# Description: as §1, with “plants. Tables A1 to A15 below show the efficacies of selected compounds of the general formula (I) according to tables I.1 to I.60 on various harmful plants and an application rate corresponding to 80 g/ha or lower that were obtained by the aforementioned trial method.” for “plants.”
# Amaranthus retroflexus = assay: as above; settings: application rate 20 g/ha, scored visually after about 3 weeks vs untreated controls
# Description: as §1, with “plants. Tables A1 to A15 below show the efficacies of selected compounds of the general formula (I) according to tables I.1 to I.60 on various harmful plants and an application rate corresponding to 80 g/ha or lower that were obtained by the aforementioned trial method.” for “plants.”
# Veronica persica = assay: as above; settings: application rate 20 g/ha
# Description: as §1, with “plants. Tables A1 to A15 below show the efficacies of selected compounds of the general formula (I) according to tables I.1 to I.60 on various harmful plants and an application rate corresponding to 80 g/ha or lower that were obtained by the aforementioned trial method.” for “plants.”
# Oryza sativa = assay: Crop compatibility post-emergence (greenhouse pot trial)
# Description: as §1, §2, §3
# Stellaria media = assay: Herbicidal action post-emergence (greenhouse pot trial); settings: application rate 20 g/ha, scored visually after about 3 weeks vs untreated controls
# Description: as §1, with “plants. Tables A1 to A15 below show the efficacies of selected compounds of the general formula (I) according to tables I.1 to I.60 on various harmful plants and an application rate corresponding to 80 g/ha or lower that were obtained by the aforementioned trial method.” for “plants.”
# Digitaria sanguinalis = assay: as above; settings: application rate 20 g/ha
# Description: as §1, with “plants. Tables A1 to A15 below show the efficacies of selected compounds of the general formula (I) according to tables I.1 to I.60 on various harmful plants and an application rate corresponding to 80 g/ha or lower that were obtained by the aforementioned trial method.” for “plants.”
SMILES,Triticum aestivum (Efficacy in %) (Triticum aestivum; application rate 20 g/ha) [%],Oryza sativa (Efficacy in %) (Oryza sativa; application rate 5 g/ha) [%],Triticum aestivum (Efficacy in %) (Triticum aestivum; application rate 5 g/ha) [%],Oryza sativa (Efficacy in %) (Oryza sativa; application rate 20 g/ha) [%],Setaria viridis (Efficacy in %) (Setaria viridis) [%],Viola tricolor (Efficacy in %) (Viola tricolor) [%],Abutilon theophrasti (Efficacy in %) (Abutilon theophrasti) [%],Matricaria inodora (Efficacy in %) (Matricaria inodora) [%],Polygonum convolvulus (Efficacy in %) (Polygonum convolvulus) [%],Echinochloa crus-galli (Efficacy in %) (Echinochloa crus-galli) [%],Pharbitis purpurea (Efficacy in %) (Pharbitis purpurea) [%],Amaranthus retroflexus (Efficacy in %) (Amaranthus retroflexus) [%],Veronica persica (Efficacy in %) (Veronica persica) [%],Stellaria media (Efficacy in %) (Stellaria media) [%],Digitaria sanguinalis (Efficacy in %) (Digitaria sanguinalis) [%]
CC(Sc1cc(-n2c(=O)cc(C(F)(F)F)n(C)c2=O)c(F)cc1Cl)C(=O)NC1CCCOC1 (stereo not shown) [I.1-276],,10,,,100,100,100,100,100,,,100,100,100,
CC(CC(=O)NCC1CCCO1)Sc1cc(-n2c(=O)cc(C(F)(F)F)n(C)c2=O)c(F)cc1Cl (stereo not shown) [I.49-221],,,,10,,,100,90,100,,100,100,100,90,
CC(Sc1cc(-n2c(=O)cc(C(F)(F)F)n(C)c2=O)c(F)cc1Cl)C(=O)NCC1CCCCO1 (stereo not shown) [I.1-241],,,20,10,100,100,100,100,100,,,100,100,100,100
Cc1c(C(F)(F)F)n(C)c(=O)n(-c2cc(SC(CC(C)C)C(=O)NCC3CCCO3)c(Cl)cc2F)c1=O (stereo not shown) [I.14-221],20,,,10,,100,90,80,80,,100,100,100,,
CC(Sc1cc(-n2c(=O)cc(C(F)(F)F)n(C)c2=O)c(F)cc1Cl)C(=O)OCCOC(F)(F)F (stereo not shown) [I.1-41],20,,,,100,100,100,90,100,100,100,100,100,,100
CC(Sc1cc(-n2c(=O)cc(C(F)(F)F)n(C)c2=O)c(F)cc1Cl)C(=O)NCCCOCc1ccccc1 (stereo not shown) [I.1-180],20,,,0,,100,100,100,100,,100,100,100,90,
CC(Sc1cc(-n2c(=O)cc(C(F)(F)F)n(C)c2=O)c(F)cc1Cl)C(=O)NCC1COCCO1 (stereo not shown) [I.1-331],,,,10,,100,100,90,,,,100,100,80,
Cc1c(C(F)(F)F)n(C)c(=O)n(-c2cc(SCC(C)(C)C(=O)NCC3CCCCO3)c(Cl)cc2F)c1=O (stereo not shown) [I.54-241],0,,,0,100,,100,,100,,,100,100,80,80

# The next lines start with results.
Triticum aestivum (Efficacy in %) (Triticum aestivum; application rate 20 g/ha) [%],Oryza sativa (Efficacy in %) (Oryza sativa; application rate 5 g/ha) [%],Triticum aestivum (Efficacy in %) (Triticum aestivum; application rate 5 g/ha) [%],Oryza sativa (Efficacy in %) (Oryza sativa; application rate 20 g/ha) [%],SMILES,Setaria viridis (Efficacy in %) (Setaria viridis) [%],Viola tricolor (Efficacy in %) (Viola tricolor) [%],Abutilon theophrasti (Efficacy in %) (Abutilon theophrasti) [%],Matricaria inodora (Efficacy in %) (Matricaria inodora) [%],Polygonum convolvulus (Efficacy in %) (Polygonum convolvulus) [%],Echinochloa crus-galli (Efficacy in %) (Echinochloa crus-galli) [%],Pharbitis purpurea (Efficacy in %) (Pharbitis purpurea) [%],Amaranthus retroflexus (Efficacy in %) (Amaranthus retroflexus) [%],Veronica persica (Efficacy in %) (Veronica persica) [%],Stellaria media (Efficacy in %) (Stellaria media) [%],Digitaria sanguinalis (Efficacy in %) (Digitaria sanguinalis) [%]
10,,,,CCC(C)C(Sc1cc(-n2c(=O)cc(C(F)(F)F)n(C)c2=O)c(F)cc1Cl)C(=O)OCC1CCCCO1 (stereo not shown) [I.5-91],90,100,100,90,90,80,100,100,100,,
,,0,,"Cn1c(C(F)(F)F)cc(=O)n(-c2cc(SCC(C)(C)C(=O)OCC3CCSC3)c(Cl)cc2F)c1=O (stereo not shown) [I.48-82, Tetrahydrothiophen-3-ylmethyl 3-({2-chloro-4-fluoro-5-[3-methyl-2,6-dioxo-4-(trifluoromethyl)-3,6-dihydropyrimidin-1(2H)-yl]phenyl}sulfanyl)-2,2-dimethylpropanoate]",,,100,,100,,,100,,,
20,,,10,CC(CC(=O)OCC1CCCO1)Sc1cc(-n2c(=O)cc(C(F)(F)F)n(C)c2=O)c(F)cc1Cl (stereo not shown) [I.49-71],,100,100,100,100,,100,100,100,100,
20,,,,Cn1c(C(F)(F)F)cc(=O)n(-c2cc(SCC(C)(C)C(=O)OCC3CCCS3)c(Cl)cc2F)c1=O (stereo not shown) [I.48-81],,100,100,100,100,90,100,100,100,100,100
0,,,0,CC1CC(COC(=O)C(C)(C)CSc2cc(-n3c(=O)cc(C(F)(F)F)n(C)c3=O)c(F)cc2Cl)CO1 (stereo not shown) [I.48-73],,100,100,80,80,,100,100,100,100,
,,20,,Cn1c(C(F)(F)F)cc(=O)n(-c2cc(SCC(C)(C)C(=O)OCC3CCCCO3)c(Cl)cc2F)c1=O (stereo not shown) [I.48-91],,100,100,100,100,100,100,100,100,100,100
,,,10,CC(CC(=O)OCC1CCOC1)Sc1cc(-n2c(=O)cc(C(F)(F)F)n(C)c2=O)c(F)cc1Cl (stereo not shown) [I.49-72],,100,100,90,,,,100,100,,
,,,10,CCC(Sc1cc(-n2c(=O)cc(C(F)(F)F)n(C)c2=O)c(F)cc1Cl)C(=O)OCC1COC(C)C1 (stereo not shown) [I.2-73],90,100,100,100,100,,,100,100,100,
